In assay [1] the target is T1, 5-HT3 (Homo sapiens, UniProt P46098).
T1 sequence (P46098 24-478): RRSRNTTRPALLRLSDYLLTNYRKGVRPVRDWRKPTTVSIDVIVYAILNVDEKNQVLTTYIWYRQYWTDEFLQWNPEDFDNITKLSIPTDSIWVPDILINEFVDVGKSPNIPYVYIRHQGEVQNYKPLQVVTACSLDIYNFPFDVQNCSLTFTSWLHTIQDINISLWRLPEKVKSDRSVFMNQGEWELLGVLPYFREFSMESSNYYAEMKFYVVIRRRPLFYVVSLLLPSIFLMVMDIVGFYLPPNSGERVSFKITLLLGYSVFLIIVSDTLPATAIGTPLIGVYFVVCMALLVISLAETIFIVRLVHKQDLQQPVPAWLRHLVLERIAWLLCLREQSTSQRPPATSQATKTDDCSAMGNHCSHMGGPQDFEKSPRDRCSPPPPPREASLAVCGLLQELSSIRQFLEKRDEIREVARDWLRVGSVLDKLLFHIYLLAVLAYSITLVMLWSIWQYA
Kind of assay: PDSP radioligand binding, serotonin receptor 5-HT3. An excerpt: (§1) [17] and http://pdsp.med.unc.edu/UNC-CH%20Protocol%20Book.pdf.

Assay [2] deals with T2, Alpha1A (Homo sapiens, UniProt P35348).
T2 sequence (P35348 1-466): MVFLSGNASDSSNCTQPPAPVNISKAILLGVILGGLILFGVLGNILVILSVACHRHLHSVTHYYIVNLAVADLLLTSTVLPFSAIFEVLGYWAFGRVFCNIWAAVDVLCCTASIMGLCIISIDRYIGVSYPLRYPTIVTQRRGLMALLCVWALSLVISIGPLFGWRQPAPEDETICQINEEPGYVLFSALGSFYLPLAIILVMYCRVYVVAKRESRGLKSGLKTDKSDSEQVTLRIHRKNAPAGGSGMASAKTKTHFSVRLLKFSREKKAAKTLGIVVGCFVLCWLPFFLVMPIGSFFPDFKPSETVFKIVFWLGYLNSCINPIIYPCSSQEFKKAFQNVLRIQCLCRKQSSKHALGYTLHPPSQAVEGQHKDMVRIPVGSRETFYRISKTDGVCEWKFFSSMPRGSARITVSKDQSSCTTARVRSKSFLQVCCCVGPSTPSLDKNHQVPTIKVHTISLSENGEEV
In words: PDSP radioligand binding, adrenoceptor α1A.
Text: as §1

Assay [3] has as its target D1 (Homo sapiens, UniProt P21728). In words: PDSP radioligand binding, dopamine receptor D1.
Text: as §1

The target of assay [4] is T3, M2 (Homo sapiens, UniProt P08172).
T3 sequence (P08172 1-466): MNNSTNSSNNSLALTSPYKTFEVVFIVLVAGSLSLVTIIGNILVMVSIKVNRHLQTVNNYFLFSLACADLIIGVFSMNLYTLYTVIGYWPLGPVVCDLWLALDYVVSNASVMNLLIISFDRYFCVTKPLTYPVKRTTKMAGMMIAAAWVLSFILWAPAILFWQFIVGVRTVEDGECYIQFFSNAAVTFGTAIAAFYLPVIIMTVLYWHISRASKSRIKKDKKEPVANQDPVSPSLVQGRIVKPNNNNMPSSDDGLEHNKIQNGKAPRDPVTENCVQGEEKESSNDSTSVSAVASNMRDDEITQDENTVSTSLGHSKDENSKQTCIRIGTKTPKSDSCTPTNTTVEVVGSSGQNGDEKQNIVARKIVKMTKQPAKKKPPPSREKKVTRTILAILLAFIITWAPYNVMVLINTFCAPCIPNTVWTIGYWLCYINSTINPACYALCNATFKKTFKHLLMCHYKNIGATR
Kind of assay: PDSP radioligand binding, muscarinic receptor M2.
Text: as §1

Assay [5] deals with Sigma2 (Homo sapiens, UniProt Q5BJF2). In words: PDSP radioligand binding, Sigma2. The following applies: for inhibition at 10 µM: quadruplicate, read-out: Sigma2 Primary Screen inhibition of binding.
Text: as §1

In assay [6] the target is SERT (serotonin transporter) (Homo sapiens, UniProt P31645). Kind of assay: biochemical. The assay is classed as binding. The following applies: for Ki: Table 2.
Text: as §1

Usually Ki stands for the dissociation constant of the complex between target and ligand, obtained from inhibition or displacement. A word on the inhibition: it is the share of the control response that was lost under treatment.

SMILES strings stand for the structures.

SERT (serotonin transporter), sequence (P31645 whole entry, species assumed): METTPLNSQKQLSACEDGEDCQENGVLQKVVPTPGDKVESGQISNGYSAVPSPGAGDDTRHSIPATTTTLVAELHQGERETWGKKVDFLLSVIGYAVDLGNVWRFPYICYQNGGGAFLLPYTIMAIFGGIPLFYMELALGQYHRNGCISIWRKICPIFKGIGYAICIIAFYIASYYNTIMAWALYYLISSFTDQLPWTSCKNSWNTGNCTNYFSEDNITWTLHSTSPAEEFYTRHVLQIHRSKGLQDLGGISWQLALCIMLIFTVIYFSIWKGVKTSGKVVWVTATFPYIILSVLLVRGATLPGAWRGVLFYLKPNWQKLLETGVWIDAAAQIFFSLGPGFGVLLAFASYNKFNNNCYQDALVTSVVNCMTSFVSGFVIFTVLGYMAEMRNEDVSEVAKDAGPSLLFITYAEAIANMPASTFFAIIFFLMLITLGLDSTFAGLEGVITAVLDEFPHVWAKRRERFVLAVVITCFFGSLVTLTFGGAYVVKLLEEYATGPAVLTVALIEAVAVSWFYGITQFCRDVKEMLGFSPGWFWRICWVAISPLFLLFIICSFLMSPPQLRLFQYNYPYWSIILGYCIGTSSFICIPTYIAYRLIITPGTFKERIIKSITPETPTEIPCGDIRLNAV
Sigma2, sequence (Q5BJF2 whole entry): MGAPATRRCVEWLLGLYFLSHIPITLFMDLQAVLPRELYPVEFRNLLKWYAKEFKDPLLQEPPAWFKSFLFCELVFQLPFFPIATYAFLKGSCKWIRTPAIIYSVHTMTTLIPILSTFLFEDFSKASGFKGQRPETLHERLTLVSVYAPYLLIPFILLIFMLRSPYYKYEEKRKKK
D1, sequence (P21728 whole entry): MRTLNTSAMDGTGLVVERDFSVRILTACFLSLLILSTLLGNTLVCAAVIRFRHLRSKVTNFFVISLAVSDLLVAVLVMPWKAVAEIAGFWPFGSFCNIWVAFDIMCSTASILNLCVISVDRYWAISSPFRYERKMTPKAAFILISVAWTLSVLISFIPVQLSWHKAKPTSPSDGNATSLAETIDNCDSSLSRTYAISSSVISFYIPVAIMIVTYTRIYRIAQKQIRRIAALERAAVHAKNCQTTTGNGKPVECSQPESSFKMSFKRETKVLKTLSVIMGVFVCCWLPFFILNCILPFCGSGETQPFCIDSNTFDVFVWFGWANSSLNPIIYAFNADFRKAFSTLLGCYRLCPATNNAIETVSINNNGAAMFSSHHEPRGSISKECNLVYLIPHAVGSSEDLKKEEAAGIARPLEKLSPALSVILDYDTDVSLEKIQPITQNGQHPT

Consider `CCNC1(c2cccc(OC)c2)CCCCC1=O` (racemic) [Methoxetamine, (RS)-2-(ethylamino)-2-(3-methoxyphenyl)cyclohexanone], for which the inhibition constant (Ki) in assay [1] was > 10 µM; in assay [2] it was > 10 µM; in assay [3] it was > 10 µM; in assay [4], > 10 µM; in assay [5] (Ki Sigma 2, Table S1, unit inferred), > 10 µM. Moreover, the inhibition at 10 µM in assay [5] is < 50%.

For `COc1cccc(C2(N3CCCCC3)CCCCC2)c1` [3-MeO-PCP, 1-[1-(3-methoxyphenyl)cyclohexyl]piperidine], the Ki in assay [1] was > 10 µM; in assay [2], > 10 µM; in assay [3], > 10 µM; in assay [4], > 10 µM; in assay [6] it was 0.216 µM. The inhibition at 10 µM in assay [5] was < 50%.

As for `COc1ccc(C2(N3CCCCC3)CCCCC2)cc1` [4-MeO-PCP, 1-[1-(4-methoxyphenyl)cyclohexyl]piperidine], the Ki is > 10 µM in assay [1]; > 10 µM in assay [2]; > 10 µM in assay [3]; > 10 µM in assay [4]; 0.844 µM in assay [6]. Further, the “affinity for the serotonin transporter (SERT), in words” value in assay [6] is on record as “submicromolar affinities”.

(Values after article PMC3602154 (PLoS ONE, 2013).)
